The values below come from patent US20230055705A1, “SUBSTITUTED THIOPHENE CARBOXAMIDES AND DERIVATIVES THEREOF” (Bayer Aktiengesellschaft, priority 2019, published 2023).

The subject of assay [1] is Colletotrichum lindemuthianum. The assay can be described thus: In vivo preventive test on Colletotrichum lindemuthianum (Antrachnose on bean). To be noted: 144 h, inoculation 72 h after spraying, evaluated 6 days after inoculation, read-out: efficacy; for pest or weed control at 500 ppm: 500 ppm of active ingredient; for pest or weed control at 31 ppm: 31 ppm of active ingredient. The procedure, abridged: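 Young bean plants sprayed preventively with compound in acetone/DMSO/Tween diluted in water, then spore-inoculated 72 h later. Incubation 24 h at 20° C./100% RH, then 5 days at 20° C./90% RH; scored 6 days post-inoculation as % efficacy (0% = solvent-treated control, 100% = no disease).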

The test system of a further assay is Peronospora parasitica. The assay can be described thus: In vivo preventive test on Peronospora parasitica (Crucifer downy mildew). The note with it: Hyaloperonospora parasitica, in Brassica oleracea, 120 h, cabbage, evaluated 5 days after inoculation, read-out: efficacy; for pest or weed control at 31 ppm: 31 ppm of active ingredient; for pest or weed control at 125 ppm: 125 ppm of active ingredient; for pest or weed control at 500 ppm: 500 ppm of active ingredient. The procedure, abridged: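 Young cabbage plants were sprayed with compound in acetone/DMSO/Tween diluted with water, then inoculated 72 h later with a Peronospora parasitica spore suspension. Plants were kept 5 days at 20 °C and 100% RH. Efficacy was scored with 0% equal to solvent-treated controls and 100% meaning no disease.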

Another assay relates to Uromyces appendiculatus. The assay can be described thus: In vivo preventive test on Uromyces appendiculatus (bean rust). The note with it: 240 h, evaluated 10 days after inoculation, read-out: efficacy; for pest or weed control at 500 ppm: 500 ppm of active ingredient; for pest or weed control at 125 ppm: 125 ppm of active ingredient. In a few lines: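 Young bean plants sprayed with compound in acetone/DMSO/Tween diluted in water, inoculated 72 h later with U. appendiculatus spore suspension. Held 24 h at 20 °C, 100% RH, then 9 days at 20 °C, 70-80% RH. Efficacy scored 10 days post-inoculation versus solvent-treated controls (0% = control, 100% = no disease).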

Take `COC(=O)C(Cc1c[nH]cn1)NC(=O)c1sc(Cl)c(Cl)c1Cl` (stereo not drawn) [I.012]: the pest or weed control at 500 ppm (in assay [1]; with Peronospora parasitica; with Uromyces appendiculatus) was 90 to 100% each time. In addition, in the assay on Peronospora parasitica, the pest or weed control at 31 ppm is 70 to 79%. Also, the pest or weed control at 125 ppm with Peronospora parasitica was in the range of 90 to 100%.

Turning to `COC(=O)[C@H](CCCNC(=N)N)NC(=O)c1sc(Cl)c(Cl)c1Cl` [I.008], in the assay with Peronospora parasitica, the pest or weed control at 31 ppm was 90 to 100%, the pest or weed control at 125 ppm fell in the range of 90 to 100% and the pest or weed control at 500 ppm lay in the range of 90 to 100%. Besides, in the assay on Uromyces appendiculatus, the pest or weed control at 125 ppm is 70 to 79% and the pest or weed control at 500 ppm was in the range of 90 to 100%.

As for `C[C@H](NC(=O)c1sc(Cl)c(Cl)c1Cl)C(N)=O` [I.119], in assay [1], the pest or weed control at 31 ppm fell in the range of 70 to 79% and the pest or weed control at 500 ppm lay in the range of 90 to 100%. Besides, in the assay on Peronospora parasitica, the pest or weed control at 31 ppm is 90 to 100% and the pest or weed control at 125 ppm fell in the range of 90 to 100%. In the assay on Uromyces appendiculatus, the pest or weed control at 125 ppm was 90 to 100% and the pest or weed control at 500 ppm was 90 to 100%.

As for `C[C@H](NC(=S)c1sc(Cl)c(Cl)c1Cl)C(=O)O` [I.113], the pest or weed control at 500 ppm in assay [1] lay in the range of 90 to 100%. For the same compound, in the assay with Peronospora parasitica, the pest or weed control at 31 ppm was 80 to 89%, the pest or weed control at 125 ppm was 90 to 100% and the pest or weed control at 500 ppm lay within 90 to 100%. Moreover, in the assay with Uromyces appendiculatus, the pest or weed control at 125 ppm is 90 to 100% and the pest or weed control at 500 ppm lay within 90 to 100%.

`CCOC(=O)C(CSC)NC(=O)c1sc(Cl)c(Cl)c1Cl` (stereo not drawn) [I.143]: the figures for the pest or weed control at 31 ppm (in assay [1]; in the assay with Peronospora parasitica) were 70 to 79% and 90 to 100%, respectively. For the same compound, the pest or weed control at 125 ppm in the assay with Peronospora parasitica and in the assay on Uromyces appendiculatus was 90 to 100% in each case.

Turning to `COC(=O)[C@H](CC(N)=O)NC(=O)c1sc(Cl)c(Cl)c1Cl` [I.015], the pest or weed control at 31 ppm in the assay with Peronospora parasitica was in the range of 90 to 100%. Also, the pest or weed control at 125 ppm in the assay on Peronospora parasitica lay in the range of 90 to 100%; with Uromyces appendiculatus, 80 to 89%.

`CCOC(=O)C(CC(N)=O)NC(=O)c1sc(Cl)c(Cl)c1Cl` (stereo not drawn) [I.046]: in assay [1], the pest or weed control at 31 ppm was 80 to 89% and the pest or weed control at 500 ppm is 90 to 100%. In addition, in the assay with Peronospora parasitica, the pest or weed control at 31 ppm was 90 to 100%, the pest or weed control at 125 ppm lay in the range of 90 to 100% and the pest or weed control at 500 ppm was in the range of 90 to 100%. Further, in the assay on Uromyces appendiculatus, the pest or weed control at 125 ppm fell in the range of 90 to 100% and the pest or weed control at 500 ppm was in the range of 90 to 100%.

Turning to `COC(=O)C[C@H](NC(=O)c1sc(Cl)c(Cl)c1Cl)C(=O)OC` [I.144], the figures for the pest or weed control at 31 ppm (in assay [1]; in the assay on Peronospora parasitica) were 80 to 89% and 90 to 100%, respectively. Further, the pest or weed control at 125 ppm in the assay with Peronospora parasitica and with Uromyces appendiculatus was 90 to 100% throughout.

Regarding `O=C(O)CNC(=S)c1sc(Cl)c(Cl)c1Cl` [I.022, N-[(3,4,5-trichloro-2-thienyl)carbonothioyl]glycine], the pest or weed control at 31 ppm in assay [1] was in the range of 70 to 79%; with Peronospora parasitica it was 90 to 100%. The pest or weed control at 500 ppm (in assay [1]; in the assay with Peronospora parasitica; in the assay on Uromyces appendiculatus) was 90 to 100% each time. In addition, the pest or weed control at 125 ppm in the assay on Peronospora parasitica fell in the range of 90 to 100%.

On to `CCOC(=O)C(C#N)NC(=O)c1sc(Cl)c(Cl)c1Cl` (stereo not drawn) [I.009], for which the pest or weed control at 500 ppm in assay [1] lay within 90 to 100%. In the assay on Peronospora parasitica, the pest or weed control at 31 ppm lay in the range of 90 to 100%, the pest or weed control at 125 ppm was 90 to 100% and the pest or weed control at 500 ppm was in the range of 90 to 100%. For the same compound, in the assay with Uromyces appendiculatus, the pest or weed control at 125 ppm lay in the range of 90 to 100% and the pest or weed control at 500 ppm lay in the range of 90 to 100%.

Take `COC(=O)CNC(=S)c1sc(Cl)c(Cl)c1Cl` [I.038, methyl N-[(3,4,5-trichloro-2-thienyl)carbonothioyl]glycinate]: in assay [1], the pest or weed control at 31 ppm was 90 to 100% and the pest or weed control at 500 ppm is 90 to 100%. In the assay with Peronospora parasitica, the pest or weed control at 31 ppm was in the range of 90 to 100%, the pest or weed control at 125 ppm lay within 90 to 100% and the pest or weed control at 500 ppm lay within 90 to 100%. In addition, the pest or weed control at 500 ppm with Uromyces appendiculatus lay in the range of 90 to 100%.

In the case of `COC(=O)C(CC(F)F)NC(=O)c1sc(Cl)c(Cl)c1Cl` (stereo not drawn) [I.016], the pest or weed control at 31 ppm in assay [1] was 80 to 89%; in the assay on Peronospora parasitica, 90 to 100%. In addition, the pest or weed control at 500 ppm (in assay [1]; in the assay on Peronospora parasitica; with Uromyces appendiculatus) was 90 to 100% in each case. Besides, the pest or weed control at 125 ppm in the assay on Peronospora parasitica and in the assay with Uromyces appendiculatus was 90 to 100% in each case.

Consider `CCOC(=O)C(CC(F)(F)F)NC(=O)c1sc(Cl)c(Cl)c1Cl` (stereo not drawn) [I.048], for which the pest or weed control at 500 ppm in assay [1] was 80 to 89%. Besides, in the assay on Peronospora parasitica, the pest or weed control at 31 ppm fell in the range of 90 to 100%, the pest or weed control at 125 ppm fell in the range of 90 to 100% and the pest or weed control at 500 ppm lay within 90 to 100%. For the same compound, in the assay with Uromyces appendiculatus, the pest or weed control at 125 ppm lay in the range of 90 to 100% and the pest or weed control at 500 ppm was 90 to 100%.

As to `COC(=O)[C@H](CSC(=O)N(C)C)NC(=O)c1sc(Cl)c(Cl)c1Cl` [I.142], the values for the pest or weed control at 31 ppm (in assay [1]; with Peronospora parasitica) were 80 to 89% and 90 to 100%, respectively. Further, the pest or weed control at 125 ppm in the assay on Peronospora parasitica and in the assay with Uromyces appendiculatus was 90 to 100% in each case.
